Measured values published in the supplement of paper PMC10307832.

Legend:
Assay in all cases: relative viability (nuclei count vs DMSO), 5 days (fraction); higher = more cells survive
NCI-H1755 = test system: NCI-H1755
In short: (§1)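 Five library-drug doses in √10 steps were combined with a fixed anchor-drug dose, or a single drug was given alone, by pin tool to lung cancer cell lines in 1536-well plates the day after seeding. Nuclei were stained and counted after 5 days. Relative viability is the nuclei count in treated wells over that in vehicle wells, taken as the median of duplicate plates.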

UMC-11 = test system: UMC-11
In short: as §1

EKVX = test system: EKVX
In short: as §1

LCLC-103H = test system: LCLC-103H
In short: as §1

HCC-44 = test system: HCC-44
In short: as §1

IA-LM = test system: IA-LM
In short: as §1

HCC-15 = test system: HCC-15
In short: as §1

EBC-1 = test system: EBC-1
In short: as §1

NCI-H1703 = test system: NCI-H1703
In short: as §1

NCI-H1299 = test system: NCI-H1299
In short: as §1

Calu-6 = test system: Calu-6
In short: as §1

CCN(CC)CCCCNc1ncc2cc(-c3cc(OC)cc(OC)c3)c(NC(=O)NC(C)(C)C)nc2n1 + CC(C)C[C@H](NC(=O)[C@H](Cc1ccccc1)NC(=O)c1cnccn1)B(O)O [Bortezomib] (partner 0.002 µM)
relative viability (NCI-H1755; first compound 0.01 µM): 0.977
relative viability (NCI-H1755; first compound 0.03162 µM): 0.992
relative viability (NCI-H1755; first compound 0.1 µM): 1.01
relative viability (NCI-H1755; first compound 0.3162 µM): 1.07
relative viability (NCI-H1755; first compound 1 µM): 0.936
relative viability (UMC-11; first compound 0.01 µM): 0.702
relative viability (UMC-11; first compound 0.03162 µM): 0.722
relative viability (UMC-11; first compound 0.1 µM): 0.73
relative viability (UMC-11; first compound 0.3162 µM): 0.945
relative viability (UMC-11; first compound 1 µM): 0.544
relative viability (EKVX; first compound 0.01 µM): 1.15
relative viability (EKVX; first compound 0.03162 µM): 0.957
relative viability (EKVX; first compound 0.1 µM): 1.2
relative viability (EKVX; first compound 0.3162 µM): 1.21
relative viability (EKVX; first compound 1 µM): 1.1
relative viability (LCLC-103H; first compound 0.01 µM): 1.07
relative viability (LCLC-103H; first compound 0.03162 µM): 1.06
relative viability (LCLC-103H; first compound 0.1 µM): 1.09
relative viability (LCLC-103H; first compound 0.3162 µM): 1.13
relative viability (LCLC-103H; first compound 1 µM): 0.945
relative viability (HCC-44; first compound 0.01 µM): 0.908
relative viability (HCC-44; first compound 0.03162 µM): 0.883
relative viability (HCC-44; first compound 0.1 µM): 1.08
relative viability (HCC-44; first compound 0.3162 µM): 1.03
relative viability (HCC-44; first compound 1 µM): 0.896
relative viability (IA-LM; first compound 0.01 µM): 0.868
relative viability (IA-LM; first compound 0.03162 µM): 0.795
relative viability (IA-LM; first compound 0.1 µM): 0.977
relative viability (IA-LM; first compound 0.3162 µM): 0.557
relative viability (IA-LM; first compound 1 µM): 0.776
relative viability (HCC-15; first compound 0.01 µM): 1.24
relative viability (HCC-15; first compound 0.03162 µM): 1.06
relative viability (HCC-15; first compound 0.1 µM): 1.06
relative viability (HCC-15; first compound 0.3162 µM): 1.19
relative viability (HCC-15; first compound 1 µM): 0.936
relative viability (EBC-1; first compound 0.01 µM): 0.554
relative viability (EBC-1; first compound 0.03162 µM): 0.599
relative viability (EBC-1; first compound 0.1 µM): 0.634
relative viability (EBC-1; first compound 0.3162 µM): 0.565
relative viability (EBC-1; first compound 1 µM): 0.458
relative viability (NCI-H1703; first compound 0.01 µM): 0.343
relative viability (NCI-H1703; first compound 0.1 µM): 0.364
relative viability (NCI-H1703; first compound 0.3162 µM): 0.215
relative viability (NCI-H1703; first compound 1 µM): 0.236
relative viability (NCI-H1299; first compound 0.01 µM): 1.11
relative viability (NCI-H1299; first compound 0.03162 µM): 1.02
relative viability (NCI-H1299; first compound 0.1 µM): 1.03
relative viability (NCI-H1299; first compound 0.3162 µM): 0.979
relative viability (NCI-H1299; first compound 1 µM): 0.954
relative viability (Calu-6; first compound 0.01 µM): 1.01
relative viability (Calu-6; first compound 0.03162 µM): 1.11
relative viability (Calu-6; first compound 0.1 µM): 1.08
relative viability (Calu-6; first compound 0.3162 µM): 1.11
relative viability (Calu-6; first compound 1 µM): 0.996

O=c1cc(-c2cccc3c2Sc2ccccc2S3)oc(N2CCOCC2)c1 + CC(C)C[C@H](NC(=O)[C@H](Cc1ccccc1)NC(=O)c1cnccn1)B(O)O [Bortezomib] (partner 0.002 µM)
relative viability (NCI-H1755; first compound 0.08 µM): 0.973
relative viability (NCI-H1755; first compound 0.253 µM): 1.09
relative viability (NCI-H1755; first compound 0.8 µM): 1.01
relative viability (NCI-H1755; first compound 2.53 µM): 1.01
relative viability (NCI-H1755; first compound 8 µM): 0.941
relative viability (UMC-11; first compound 0.08 µM): 0.774
relative viability (UMC-11; first compound 0.253 µM): 1.19
relative viability (UMC-11; first compound 0.8 µM): 1.24
relative viability (UMC-11; first compound 2.53 µM): 0.535
relative viability (UMC-11; first compound 8 µM): 1.01
relative viability (EKVX; first compound 0.08 µM): 0.977
relative viability (EKVX; first compound 0.253 µM): 1.11
relative viability (EKVX; first compound 0.8 µM): 1.1
relative viability (EKVX; first compound 2.53 µM): 1.06
relative viability (EKVX; first compound 8 µM): 1.1
relative viability (LCLC-103H; first compound 0.08 µM): 1.16
relative viability (LCLC-103H; first compound 0.253 µM): 1.18
relative viability (LCLC-103H; first compound 0.8 µM): 1.08
relative viability (LCLC-103H; first compound 2.53 µM): 1.14
relative viability (LCLC-103H; first compound 8 µM): 1.37
relative viability (HCC-44; first compound 0.08 µM): 0.907
relative viability (HCC-44; first compound 0.253 µM): 1.07
relative viability (HCC-44; first compound 0.8 µM): 0.837
relative viability (HCC-44; first compound 2.53 µM): 0.816
relative viability (HCC-44; first compound 8 µM): 1.03
relative viability (IA-LM; first compound 0.08 µM): 0.833
relative viability (IA-LM; first compound 0.253 µM): 0.946
relative viability (IA-LM; first compound 0.8 µM): 0.799
relative viability (IA-LM; first compound 2.53 µM): 0.949
relative viability (IA-LM; first compound 8 µM): 0.905
relative viability (HCC-15; first compound 0.08 µM): 1.07
relative viability (HCC-15; first compound 0.253 µM): 1.27
relative viability (HCC-15; first compound 0.8 µM): 1.22
relative viability (HCC-15; first compound 2.53 µM): 1
relative viability (HCC-15; first compound 8 µM): 1.16
relative viability (EBC-1; first compound 0.08 µM): 0.602
relative viability (EBC-1; first compound 0.253 µM): 0.535
relative viability (EBC-1; first compound 0.8 µM): 0.546
relative viability (EBC-1; first compound 2.53 µM): 0.424
relative viability (EBC-1; first compound 8 µM): 0.448
relative viability (NCI-H1703; first compound 0.253 µM): 0.356
relative viability (NCI-H1703; first compound 0.8 µM): 0.384
relative viability (NCI-H1703; first compound 2.53 µM): 0.346
relative viability (NCI-H1703; first compound 8 µM): 0.285
relative viability (NCI-H1299; first compound 0.08 µM): 1.02
relative viability (NCI-H1299; first compound 0.253 µM): 1.02
relative viability (NCI-H1299; first compound 0.8 µM): 1.05
relative viability (NCI-H1299; first compound 2.53 µM): 0.997
relative viability (NCI-H1299; first compound 8 µM): 1.01
relative viability (Calu-6; first compound 0.08 µM): 0.91
relative viability (Calu-6; first compound 0.253 µM): 1.02
relative viability (Calu-6; first compound 0.8 µM): 1.01
relative viability (Calu-6; first compound 2.53 µM): 0.974
relative viability (Calu-6; first compound 8 µM): 0.976
